Literature values as cited in US20080103122A1, “PHARMACEUTICAL COMBINATIONS FOR LIPID MANAGEMENT AND IN THE TREATMENT OF ATHEROSCLEROSIS AND HEPATIC STEATOSIS” (Schering Corporation, priority 2006, published 2008).

Test system: atherosclerotic plaques
Conditions: mice; Zaiss et al., Circulation 100 (18 Suppl. I): 255 (1999)

Compound: Cc1cc(C)c2c3ccccc3n(Cc3ccc([C@@H](C(=O)N[C@@H](CO)c4ccccc4)C4CCCC4)cc3)c2n1 [implitiapide, 2,2-(S)-cyclopentyl-2-{[4-(2,4-dimethyl-alpha-carbolin-9-yl)methyl]phenyl}acetic acid-(R)-phenyl-glycinol-amide]
- formation of atherosclerotic plaques: prevents the formation of atherosclerotic plaques
